Assay results as given in patent US10941158B2, “Pyrazole ACC inhibitors and uses thereof” (Gilead Apollo, LLC, priority 2015, dated 2021).
Values after ≈ are worked out from the molar mass of the structure shown.

Assays:
ACC2 = ACC2 isolated from rat, mouse, monkey and human; cited from earlier work
ACC1 = ACC1 isolated from rat, mouse, monkey and human; cited from earlier work
C. albicans ATCC 90028 = test: Anti-Fungal (Candida) Activity Assay, broth microtiter MIC; type: cell-based; settings: ATCC90028, 3 replicates, MIC recorded at 48 h, read-out: MIC C. albicans ATCC 90028
In short: (§1)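 Following CLSI M27-A3 broth microdilution, direct colony suspensions in RPMI 1640+MOPS were challenged with compounds. MICs were read visually against the growth control after 48 h.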

C. krusei ATCC 6258 = test: as above; type: cell-based; settings: Pichia kudriavzevii, ATCC6258; 3 replicates, MIC recorded at 48 h; read-out: MIC C. krusei ATCC 6258
In short: as §1

[1] = system: C. parapsilosis ATCC 22019; test: as above; type: cell-based; settings: Lodderomyces parapsilosis, ATCC22019; 3 replicates, MIC recorded at 48 h; read-out: MIC C. parapsilosis ATCC 22019
In short: as §1

human (hACC2) ACC2 = human (hACC2) ACC2 (Homo sapiens, UniProt O00763); test: In vitro Acetyl-CoA Carboxylase (ACC) inhibition assay (ADP-Glo), hACC2; type: biochemical
Procedure: The detailed procedure is as follows. […] 10 μL ADP glo reagent was added. […] 20 μL kinase detection reagent was added.
“NA” stands for “not assayed.”

fungal (fACC2) ACC2 = fungal (fACC2) ACC2 (UniProt Q00955); settings: read-out: fACC2 IC50; fungal ACC2, ADP-Glo
Rhizoctonia solani (Rs) = test: Growth inhibition assay of fungal pathogens; type: cell-based; settings: 48 h, Table 4b, read-out: Concentration at 90% Inhibition Rs
In short: (§2)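 OD600 (blank-subtracted) plus visual scoring at 48 h, vs 2% DMSO ctrl → % inhibition. Final cpd 50/10/2 or 2/0.4/0.08 ppm. Fm/Bc/Dm spores in 17% V8 broth; Rs as 1.5 mm plugs in ¼ PDB.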

[2] = system: Collectotrichum graminicola (Cg); test: Growth inhibition assay of fungal pathogens; type: cell-based; settings: 48 h, Table 4b, read-out: Concentration at 90% Inhibition Cg
In short: (§3)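 Compounds in DMSO tested at final 50, 10, 2 ppm or 2, 0.4, 0.08 ppm. Spores in 17% V8 medium, or 1.5 mm mycelial plugs in ¼ PDB for R. solani, incubated with compound. OD600 and visual ratings at 48 h versus 2% DMSO control gave percent growth inhibition.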

Septoria tritici (St) = test: Growth inhibition assay of fungal pathogens; type: cell-based; settings: Zymoseptoria tritici; Table 4b, 48 hours; read-out: Concentration at 90% Inhibition St
In short: as §3

[3] = system: Fusarium moniliforme (Fm); test: Growth inhibition assay of fungal pathogens; type: cell-based; settings: Fusarium verticillioides, 48 h, Table 4b, 48 hours; read-out: Concentration at 90% Inhibition Fm
In short: as §2

[4] = system: Phytophthora capsici (Pc); test: Growth inhibition assay of fungal pathogens; type: cell-based; settings: Phytophthora capsici; Table 4b, 48 hours; read-out: Concentration at 90% Inhibition Pc
In short: as §3

Botrtyis cinerea (Bc) = test: Growth inhibition assay of fungal pathogens; type: cell-based; settings: 48 h, Table 4b, read-out: Concentration at 90% Inhibition Bc
In short: as §2

Diplodia maydis (Dm) = test: Growth inhibition assay of fungal pathogens; type: cell-based; settings: Stenocarpella maydis, 48 h, Table 4b, read-out: Concentration at 90% Inhibition Dm
In short: as §2

[5] = system: Fusarium virguliforme (Fv); test: Growth inhibition assay of fungal pathogens; type: cell-based; settings: 48 h, Table 4b, 48 hours, read-out: Concentration at 90% Inhibition Fv
In short: as §3

fungal (fACC2) ACC2, sequence (Q00955 whole entry): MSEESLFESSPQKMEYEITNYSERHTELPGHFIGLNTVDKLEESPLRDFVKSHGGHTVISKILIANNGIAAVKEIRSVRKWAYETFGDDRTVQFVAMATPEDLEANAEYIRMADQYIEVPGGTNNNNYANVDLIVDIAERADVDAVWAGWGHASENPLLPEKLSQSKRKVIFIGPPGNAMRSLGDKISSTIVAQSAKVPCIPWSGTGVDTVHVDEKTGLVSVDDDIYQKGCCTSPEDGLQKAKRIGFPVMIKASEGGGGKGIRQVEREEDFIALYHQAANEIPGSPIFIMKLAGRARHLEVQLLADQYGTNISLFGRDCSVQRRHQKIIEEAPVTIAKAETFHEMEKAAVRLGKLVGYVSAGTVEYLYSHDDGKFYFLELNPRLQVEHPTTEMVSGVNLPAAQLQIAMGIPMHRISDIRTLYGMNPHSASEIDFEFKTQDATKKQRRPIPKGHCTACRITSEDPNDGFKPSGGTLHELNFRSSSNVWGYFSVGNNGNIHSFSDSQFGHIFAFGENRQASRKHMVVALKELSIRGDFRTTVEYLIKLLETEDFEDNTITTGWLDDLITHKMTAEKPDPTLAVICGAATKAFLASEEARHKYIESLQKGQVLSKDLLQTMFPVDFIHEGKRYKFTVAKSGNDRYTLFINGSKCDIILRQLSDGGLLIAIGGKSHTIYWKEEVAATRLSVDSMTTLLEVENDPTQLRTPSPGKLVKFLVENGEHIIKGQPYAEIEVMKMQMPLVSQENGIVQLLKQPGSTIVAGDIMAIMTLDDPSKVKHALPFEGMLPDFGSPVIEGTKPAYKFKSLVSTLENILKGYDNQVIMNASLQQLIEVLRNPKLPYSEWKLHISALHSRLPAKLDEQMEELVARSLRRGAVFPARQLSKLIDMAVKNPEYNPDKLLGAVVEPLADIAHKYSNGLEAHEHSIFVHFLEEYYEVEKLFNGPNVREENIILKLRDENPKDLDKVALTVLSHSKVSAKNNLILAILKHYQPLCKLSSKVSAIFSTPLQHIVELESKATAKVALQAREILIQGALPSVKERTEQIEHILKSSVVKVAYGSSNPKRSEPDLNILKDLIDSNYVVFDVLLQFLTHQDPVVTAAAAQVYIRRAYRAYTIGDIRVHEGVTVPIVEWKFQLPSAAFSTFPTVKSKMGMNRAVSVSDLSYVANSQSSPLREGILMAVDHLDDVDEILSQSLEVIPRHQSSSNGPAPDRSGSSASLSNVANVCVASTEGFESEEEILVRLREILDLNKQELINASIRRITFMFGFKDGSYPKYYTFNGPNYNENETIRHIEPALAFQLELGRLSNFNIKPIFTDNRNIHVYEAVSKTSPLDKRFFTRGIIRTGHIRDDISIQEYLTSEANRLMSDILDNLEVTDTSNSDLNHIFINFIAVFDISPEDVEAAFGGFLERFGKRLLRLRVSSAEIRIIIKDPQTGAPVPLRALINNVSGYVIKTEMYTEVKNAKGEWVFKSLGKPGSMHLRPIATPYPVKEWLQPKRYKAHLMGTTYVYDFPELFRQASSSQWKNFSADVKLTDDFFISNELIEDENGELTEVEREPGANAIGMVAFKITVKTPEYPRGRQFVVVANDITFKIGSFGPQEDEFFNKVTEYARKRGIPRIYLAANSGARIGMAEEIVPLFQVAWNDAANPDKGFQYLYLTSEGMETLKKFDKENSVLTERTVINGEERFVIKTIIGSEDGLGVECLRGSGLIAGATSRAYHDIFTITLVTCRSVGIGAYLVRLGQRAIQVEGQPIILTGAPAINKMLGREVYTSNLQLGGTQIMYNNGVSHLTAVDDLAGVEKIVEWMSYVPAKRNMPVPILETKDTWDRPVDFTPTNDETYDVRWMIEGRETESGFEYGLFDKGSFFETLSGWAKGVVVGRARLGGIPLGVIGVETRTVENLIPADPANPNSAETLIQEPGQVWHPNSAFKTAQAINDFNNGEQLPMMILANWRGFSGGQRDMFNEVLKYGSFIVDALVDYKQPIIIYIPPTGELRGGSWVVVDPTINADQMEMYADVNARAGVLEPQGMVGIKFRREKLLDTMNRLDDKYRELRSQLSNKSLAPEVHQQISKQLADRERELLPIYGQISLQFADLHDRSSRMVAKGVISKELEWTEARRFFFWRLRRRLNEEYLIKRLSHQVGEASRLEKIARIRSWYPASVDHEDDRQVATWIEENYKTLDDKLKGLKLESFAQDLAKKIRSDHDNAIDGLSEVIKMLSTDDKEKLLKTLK
human (hACC2) ACC2, sequence (O00763 whole entry): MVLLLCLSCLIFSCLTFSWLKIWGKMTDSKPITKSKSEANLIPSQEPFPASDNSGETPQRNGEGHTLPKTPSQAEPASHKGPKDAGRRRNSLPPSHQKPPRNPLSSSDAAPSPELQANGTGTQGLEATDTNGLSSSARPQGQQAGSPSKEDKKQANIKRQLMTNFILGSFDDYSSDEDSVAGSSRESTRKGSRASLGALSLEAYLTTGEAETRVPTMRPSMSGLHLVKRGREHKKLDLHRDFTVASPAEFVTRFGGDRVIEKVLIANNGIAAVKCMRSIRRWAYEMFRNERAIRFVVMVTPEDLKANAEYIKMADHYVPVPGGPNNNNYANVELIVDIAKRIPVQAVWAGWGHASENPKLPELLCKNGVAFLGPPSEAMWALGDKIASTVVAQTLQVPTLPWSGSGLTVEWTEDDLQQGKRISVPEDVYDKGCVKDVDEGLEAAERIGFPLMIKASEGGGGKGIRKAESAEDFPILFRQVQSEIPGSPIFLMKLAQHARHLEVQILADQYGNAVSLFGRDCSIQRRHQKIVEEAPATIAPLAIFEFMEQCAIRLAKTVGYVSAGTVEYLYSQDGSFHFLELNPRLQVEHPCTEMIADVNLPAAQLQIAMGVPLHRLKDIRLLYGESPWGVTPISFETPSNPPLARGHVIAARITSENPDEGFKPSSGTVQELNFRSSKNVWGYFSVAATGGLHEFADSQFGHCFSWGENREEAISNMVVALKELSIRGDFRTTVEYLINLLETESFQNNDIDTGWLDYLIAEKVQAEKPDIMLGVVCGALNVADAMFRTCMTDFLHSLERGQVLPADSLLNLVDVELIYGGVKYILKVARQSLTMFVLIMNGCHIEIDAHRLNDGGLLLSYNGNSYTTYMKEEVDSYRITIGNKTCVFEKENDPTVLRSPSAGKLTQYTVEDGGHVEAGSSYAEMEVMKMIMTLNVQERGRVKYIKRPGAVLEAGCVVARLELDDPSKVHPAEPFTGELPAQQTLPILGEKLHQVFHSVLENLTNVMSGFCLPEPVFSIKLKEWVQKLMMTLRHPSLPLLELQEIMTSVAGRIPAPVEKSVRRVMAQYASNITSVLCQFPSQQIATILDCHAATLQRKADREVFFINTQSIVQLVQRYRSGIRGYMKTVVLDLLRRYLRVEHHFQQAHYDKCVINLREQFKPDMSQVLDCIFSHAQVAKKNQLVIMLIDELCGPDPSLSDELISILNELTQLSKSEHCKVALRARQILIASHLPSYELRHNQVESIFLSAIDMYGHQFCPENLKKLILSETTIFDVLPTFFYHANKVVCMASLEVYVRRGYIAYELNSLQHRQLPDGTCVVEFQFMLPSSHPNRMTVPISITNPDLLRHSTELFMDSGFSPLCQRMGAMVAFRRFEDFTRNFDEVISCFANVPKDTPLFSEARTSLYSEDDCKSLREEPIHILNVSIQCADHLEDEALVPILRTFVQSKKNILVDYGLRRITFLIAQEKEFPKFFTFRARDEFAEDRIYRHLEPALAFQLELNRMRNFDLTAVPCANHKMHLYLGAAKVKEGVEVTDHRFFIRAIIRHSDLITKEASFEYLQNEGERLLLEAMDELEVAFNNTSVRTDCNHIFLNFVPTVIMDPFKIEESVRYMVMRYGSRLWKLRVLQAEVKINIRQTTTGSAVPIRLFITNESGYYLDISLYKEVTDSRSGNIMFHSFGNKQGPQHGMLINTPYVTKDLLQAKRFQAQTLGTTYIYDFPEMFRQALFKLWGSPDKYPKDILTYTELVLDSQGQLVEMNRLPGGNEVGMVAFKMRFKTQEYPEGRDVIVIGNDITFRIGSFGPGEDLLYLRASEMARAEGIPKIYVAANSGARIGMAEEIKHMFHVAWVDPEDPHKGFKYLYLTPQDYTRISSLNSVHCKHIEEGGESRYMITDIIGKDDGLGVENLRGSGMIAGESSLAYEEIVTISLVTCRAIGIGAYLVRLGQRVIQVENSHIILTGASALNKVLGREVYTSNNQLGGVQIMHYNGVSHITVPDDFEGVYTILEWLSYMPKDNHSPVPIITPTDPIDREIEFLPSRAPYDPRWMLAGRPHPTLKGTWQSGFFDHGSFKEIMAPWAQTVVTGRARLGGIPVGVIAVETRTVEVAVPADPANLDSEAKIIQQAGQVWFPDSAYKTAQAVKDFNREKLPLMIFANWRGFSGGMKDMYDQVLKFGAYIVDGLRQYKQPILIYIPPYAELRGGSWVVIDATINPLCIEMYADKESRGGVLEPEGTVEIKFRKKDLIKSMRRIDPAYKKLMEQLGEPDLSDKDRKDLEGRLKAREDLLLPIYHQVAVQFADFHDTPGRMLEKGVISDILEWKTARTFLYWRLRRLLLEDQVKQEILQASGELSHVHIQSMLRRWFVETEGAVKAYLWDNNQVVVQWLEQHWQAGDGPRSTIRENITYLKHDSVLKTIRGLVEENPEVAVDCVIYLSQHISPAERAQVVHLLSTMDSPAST

SMILES	IC50 (ACC2)	IC50 (ACC1)	MIC (C. albicans ATCC 90028)	MIC (C. krusei ATCC 6258)	MIC [1]	IC50 (human (hACC2) ACC2)	IC50 (fungal (fACC2) ACC2)	IC90 (Rhizoctonia solani (Rs))	IC90 [2]	IC90 (Septoria tritici (St))	IC90 [3]	IC90 [4]	IC90 (Botrtyis cinerea (Bc))	IC90 (Diplodia maydis (Dm))	IC90 [5]
O=C(c1c2ccccc2cc2ccccc12)N1CCC(N2CCC[C@@H](C(=O)N3CCOCC3)C2)CC1 [CP-640186]	~60 nM	~60 nM													
COc1ccc(F)cc1[C@H](Cn1c(=O)n(C(C)(C)C(N)=O)c(=O)c2c(C)c(-n3cccn3)sc21)OCCC#N [Compound I-77, (R)-2-(1-(2-(2-cyanoethoxy)-2-(5-fluoro-2-methoxyphenyl)ethyl)-5-methyl-2,4-dioxo-6-(1H-pyrazol-1-yl)-1,4-dihydrothieno[2,3-d]pyrimidin-3(2H)-yl)-2-methylpropanamide]			> 4.1 µg/mL	> 4.1 µg/mL	> 4.1 µg/mL	> 40 nM	0.6 to 3 nM	> 50 µg/mL	> 50 µg/mL	> 50 µg/mL	2 µg/mL (≈ 3.61 µM)	> 50 µg/mL	> 50 µg/mL	> 50 µg/mL	10 µg/mL (≈ 18 µM)
COc1ccc(F)cc1[C@H](Cn1c(=O)n(C(C)(C)C(=O)N2CCCC2)c(=O)c2c(C)c(-n3cccn3)sc21)OCCC#N [Compound I-81, (R)-3-(1-(5-fluoro-2-methoxyphenyl)-2-(5-methyl-3-(2-methyl-1-oxo-1-(pyrrolidin-1-yl)propan-2-yl)-2,4-dioxo-6-(1H-pyrazol-1-yl)-3,4-dihydrothieno[2,3-d]pyrimidin-(2H)-yl)ethoxy)propanenitrile]			> 4.1 µg/mL	> 4.1 µg/mL	> 4.1 µg/mL	3 to 10 nM	0.6 to 3 nM	0.08 µg/mL (≈ 0.131 µM)	2 µg/mL (≈ 3.29 µM)	> 50 µg/mL	0.08 µg/mL (≈ 0.131 µM)	> 50 µg/mL	0.4 µg/mL (≈ 0.657 µM)	2 µg/mL (≈ 3.29 µM)	0.4 µg/mL (≈ 0.657 µM)
COc1ccc(F)cc1[C@H](Cn1c(=O)n(C(C)(C)C(=O)O)c(=O)c2c(C)c(-n3cccn3)sc21)OCCC#N [Compound I-82]			> 4.1 µg/mL	> 4.1 µg/mL	> 4.1 µg/mL	10 to 40 nM	0.6 to 3 nM	10 µg/mL (≈ 18 µM)	> 50 µg/mL	> 50 µg/mL	2 µg/mL (≈ 3.6 µM)	> 50 µg/mL	10 µg/mL (≈ 18 µM)	> 50 µg/mL	10 µg/mL (≈ 18 µM)
COc1ccc(F)cc1[C@@H](O)Cn1c(=O)n(C(C)(C)C(=O)O)c(=O)c2c(C)c(-n3cccn3)sc21 [Compound I-85]			2.1 to 4 µg/mL (≈ 4.18 to 7.96 µM)	0.25 to 1 µg/mL (≈ 0.497 to 1.99 µM)	0.25 to 1 µg/mL (≈ 0.497 to 1.99 µM)	10 to 40 nM	0.6 to 3 nM	10 µg/mL (≈ 19.9 µM)	> 50 µg/mL	> 50 µg/mL	10 µg/mL (≈ 19.9 µM)	> 50 µg/mL	> 50 µg/mL	> 50 µg/mL	> 50 µg/mL
